# Key:
# BRD4 BD2 = biological target: T1, BRD4 BD2 (Homo sapiens, UniProt O60885); assay: Target Engagement Intracellular BET BRD Assay (NanoBRET); format: cell-based; details: read-out: BRD4 BD2 TE IC50
# T1 construct: BD2 TE; expressed in transfected cells
# Experimental: 3× Complete Substrate plus Inhibitor Solution in Assay Medium (Opti-MEM® I Reduced Serum Medium, no phenol red, and no serum) was prepared just before measuring BRET. This solution consisted of a 1:166 dilution of NanoBRET™ Nano-Glo® Substrate plus a 1:500 dilution of Extracellular NanoLuc® Inhibitor in Assay Medium. For a 96-well plate, 30 μl of NanoBRET™ Nano-Glo® Substrate, 10 μl of Extracellular NanoLuc® Inhibitor and 4,960 μl of Assay Medium were mixed to produce 5 ml of 3× Complete Substrate plus Inhibitor Solution, followed with gently mixing by inversion 5-10 times in a conical tube. (The final concentration of Extracellular NanoLuc® Inhibitor in the 3× solution was 60 μM, for a working concentration of 20 μM. Use 3× Complete Substrate plus Inhibitor Solution within 2 hours. Discard any remaining solution).
# 50 μl of 3× Complete Substrate plus Inhibitor Solution were added to each well of the 96-well plate, followed by incubation for 2-3 minutes at room temperature. Donor emission wavelength (e.g., 450 nm) and acceptor emission wavelength (e.g., 610 nm) were measured by using the GloMax® Discover System or other NanoBRET™ Assay-compatible luminometer (it is recommended measuring BRET within 10 minutes after adding NanoBRET™ Nano-Glo™ Substrate plus Extracellular NanoLuc® Inhibitor Solution. However, BRET can be measured for up to 2 hours, but there will be some loss of luminescence signal).
# To generate raw BRET ratio values, the acceptor emission value (e.g., 610 nm) was divided by the donor emission value (e.g., 450 nm) for each sample [to correct for background, the BRET ratio was substracted in the absence of tracer (average of no-tracer control samples) from the BRET ratio of each sample]. Raw BRET units were converted to milliBRET units (mBU) by multiplying each raw BRET value by 1,000. NanoBRET™ ratio equation, including optional background correction is shown below:
# BRET Ratio=[(Acceptorsample÷Donorsample)−(Acceptorno-tracer control÷Donorno-tracer control)]×1,000.
# IL-22 = assay: Back skin PCR analysis in IMQ-treated mice, IL-22 mRNA; format: in vivo; details: 10 mg/kg, compared with vehicle treatment alone
# Experimental: (§1) Except for the control group, all other groups received a daily topical dose of 60 mg of 5% commercially available IMQ cream on the shaved back for 7 consecutive days. The same amount of Vaseline was applied to the same areas of the animals in the negative control group.
# (§2) Vehicle and DF-6129 were dosed daily (po) for 8 days, from Day −1 to Day 7. Dosing time: 1 hour prior to IMQ application.
# (§3) Animals were euthanized 4 h post last dosing on day 7 (3 h after applying with imiquimod cream) and back skin was be collected. The skin tissues were divided into two parts. One half was flash frozen and stored at −80° C. for PCR analysis (IL-17A, IL-17F, IL-22 and IL-23), the other half was fixed in 10% formalin for HE staining and scoring.
# (§4) All statistical analysis were conducted, and the level of significance was set at P<0.05. The group means and standard deviation were calculated for all measurement parameters as study designed. One-way ANOVA comparisons among the groups was performed with software SPSS 16.0.
# IL-17A = assay: Back skin PCR analysis in IMQ-treated mice, IL-17A mRNA; format: in vivo; details: 10 mg/kg, compared with vehicle treatment alone
# Experimental: as §1, §2, §3, §4
# [1] = test system: IMQ-mouse model of psoriasis; assay: IMQ induced psoriasis mouse model, PASI scoring; format: in vivo, mice; details: daily dosing po, compared to vehicle treatment
# Experimental: Except for the control group, all other groups received a daily topical dose of 60 mg of 5% commercially available IMQ cream on the shaved back for 7 consecutive days. The same amount of Vaseline was applied to the same areas of the animals in the negative control group. Vehicle and DF-6129 were dosed daily (po) for 8 days, from Day −1 to Day 7. Dosing time: 1 hour prior to IMQ application. Psoriasis Area and Severity Index (PASI) Scoring The Psoriasis Area and Severity Index (PASI) scoring system was used to evaluate the severity of skin inflammation of the mouse model. Erythema, scaling, and skin thickness was scored independently from 0-4 as (daily scoring) as below: [table] All statistical analysis were conducted, and the level of significance was set at P<0.05. The group means and standard deviation were calculated for all measurement parameters as study designed. One-way ANOVA comparisons among the groups was performed with software SPSS 16.0.
# IL-17 = assay: Serum IL-17 ELISA in IMQ-mouse model of psoriasis; format: in vivo, mice; details: compared to vehicle treatment alone, 4 h post last dosing on day 7
# Experimental: Except for the control group, all other groups received a daily topical dose of 60 mg of 5% commercially available IMQ cream on the shaved back for 7 consecutive days. The same amount of Vaseline was applied to the same areas of the animals in the negative control group. Vehicle and DF-6129 were dosed daily (po) for 8 days, from Day −1 to Day 7. Dosing time: 1 hour prior to IMQ application. Animals were euthanized 4 h post last dosing on day 7 (3 h after applying with imiquimod cream). Whole Blood was collected via cardiac puncture from all group animals. Serum samples were separated by centrifugation at 4° C. at 8000 g for 5 minutes, total 70 samples. All serum samples were stored at −80° C. for IL-17 analysis. All statistical analysis were conducted, and the level of significance was set at P<0.05. The group means and standard deviation were calculated for all measurement parameters as study designed. One-way ANOVA comparisons among the groups was performed with software SPSS 16.0.
# MCP-1 = assay: PBMC MCP-1 HTRF Assay; format: cell-based; details: LPS 200 ng/mL, 24 hours
# Experimental: The cryopreserved PBMC cells were thawed in a 37° C. water bath immediately after taking out from liquid nitrogen storage. A sterile pipette was used to transfer the content to sterile […] centrifuge tube containing […] of complete growth medium (Gibico 1640) and centrifuge at 300×g for 10 min. Supernatant was discarded, and cell pellet was resuspended in 10 mL of complete growth media in a sterile 15 mL tube. The cells were rested for 1 h at 37° C. (1×10^6 cells/mL). The cells were spinned down at 300×g for 10 minutes after 1 h. Supernatant was discard, and cell pellet was resuspended in complete growth medium, the cells number and viability were measured by AO/PI staining. In a 384-well white plate, PBMCs at 25 k cells/well (15 μl per well) were seeded with Gibico 1640 medium. The compound stock was serial diluted into […] by 3-fold dilution. 20 nL DMSO, 20 nL test compounds DMSO stock (serial diluted) were transferred in assay plate by using ECHO550, incubate for 30 min at 37° C., 5% CO2. LPS was diluted by Gibico 1640 medium.add 5 μl per well. The final concentration (200 ng/mL) was incubated for 24 hours at 37° C. with 5% CO2.
# For MCP-1 HTRF, 2.5 μl/well MCP-1 donor antibody and 2.5 μl/well MCP-1 acceptor antibody were added into 384 well plate, following by centrifuging at 190×g for 1 min and incubating at room temperature for 2 h. The plate was read on the Envision.
# IL-23 = assay: Back skin PCR analysis in IMQ-treated mice, IL-23 mRNA; format: in vivo; details: 10 mg/kg, compared with vehicle treatment alone
# Experimental: as §1, §2, §3, §4
# IL-17A, IL17F and IL-22 = details: Gilan et al. 2020; cited from earlier work
SMILES,IC50 (BRD4 BD2),mRNA levels of IL-22 from the back skin (IL-22),mRNA levels of IL-17A from the back skin (IL-17A),erythema [1],scaling [1],skin thickening [1],total psoriasis (PASI) score [1],serum IL-17 levels (IL-17),IC50 (MCP-1),mRNA levels of IL-23 from the back skin (IL-23),"expression of disease relevant pro-inflammatory genes, including IL-17A, IL17F and IL-22 (IL-17A, IL17F and IL-22)"
"Cn1ccn(-c2ccc(-c3cc(F)cc(-c4cccc(N5CCN(C(C)(C)C)CC5)c4)c3O)cc2Cl)c1=O [Example I-1, 1-(3″-(4-(tert-butyl)piperazin-1-yl)-3-chloro-5′-fluoro-2′-hydroxy-[1,1′:3′,1″- terphenyl]-4-yl)-3-methyl-1,3-dihydro-2H-imidazol-2-one]",0.323 nM,significantly reduced,significantly reduced,significant decreases,significant decreases,significant decreases,significantly reduced,significantly reduced,1.51 nM,significantly reduced,–
CNC(=O)c1cc(C(=O)NC2CC2)cn(Cc2ccccc2)c1=O [GSK620],–,–,–,–,–,–,–,–,–,–,reduced the expression
